Here are results for two substances from US20160243168A1, “ADOPTIVE CELL TRANSFER METHODS” (Cantex Pharmaceuticals, Inc., priority 2015, published 2016).

Assay [1] deals with T1, binding of CXCL12 (SDF-1) to CXCR4 (Homo sapiens, UniProt P48061).
T1 construct: purchased R&D Systems (CXCL12); Abnova (CXCR4)
In words: in vitro inhibition assay of CXCL12 binding to CXCR4 (plate ELISA). The conditions noted are these: recombinant human CXCL12 coated plate, recombinant CXCR4, absorbance 450 nm. As for the experimental part:
Polyvinyl 96-well high bind microplates (Corning Life Sciences, Corning, N.Y.) were coated with 0.5 μg/well of recombinant human CXCL12 (R&D Systems, Minneapolis, Minn.). Plates were incubated overnight at 4° C. and washed three times with PBS-0.05% Tween-20 (PBST). Separately, a constant amount of recombinant CXCR4 (Abnova, Taipei, Taiwan, 100 μL containing 0.8 μg/mL in PBST-0.1% BSA) was incubated with an equal volume of serially diluted ODSH (0.001-1,000 μg/mL in PBST-BSA) overnight at 4° C. The following day, 50 μL of CXCR4-ODSH mix was transferred to each respective CXCL12-coated well and incubated at 37° C. for 2 h. Wells were then washed four times with PBST. To detect bound CXCR4, 50 μL of a mouse anti-human CXCR4 antibody (R&D Systems, Minneapolis, Minn.) (1 μg/mL, in PBST) was added to each well, the mixture was incubated for 1 h at room temperature, and the wells were washed again four times with PBST. Horse-radish peroxidase-conjugated secondary antibody (R&D Systems, Minneapolis, Minn.) (50 μL per well) was added, wells were incubated for 1 h at room temperature, and then washed once with PBST. […] Absorbance at 450 nm was read using an automated microplate reader. IC50 values were determined from the plot of absorbance values vs. concentrations of ODSH.
(In general: An ELISA detects its analyte on a solid surface through an enzyme-linked reagent.)

The test system of assay [2] is anticoagulant activity. In words: USP anticoagulant assay. The conditions noted are these: seven serial 1.2 kg batches. The class given is biochemical.
In assay [3] the test system is Xa. In words: anti-Xa activity assay (plasma treated with Russell viper venom). Format: biochemical. The conditions noted are these: seven serial 1.2 kg batches. From the text:
Another measure of ODSH's anticoagulant activity is its anti-Xa activity which can be determined in an assay carried out using plasma treated with Russell viper venom.

In assay [4] the target is IIa (Homo sapiens, UniProt P00734+P01008). Nature of the assay: anti-IIa activity assay. Format: biochemical. The conditions noted are these: seven serial 1.2 kg batches.
For assay [5], the system named is patients with newly diagnosed acute myeloid leukemia (AML). Nature of the assay: single arm open-label clinical study, induction chemotherapy plus ODSH. The class given is in vivo, human. As for the experimental part:
A single arm open-label clinical study was conducted at multiple trial sites (University of Utah, Georgia Regents University, and Medical University of South Carolina) in patients with newly diagnosed acute myeloid leukemia (AML), seeking to confirm that ODSH could accelerate platelet and white blood cell (WBC) recovery in patients receiving induction chemotherapy with a regimen known to have myelosuppressive side effects.
All patients received the following standard (“7+3”) induction regimen, • Idarubicin (12 mg/m^2/day) by short intravenous infusion on Days 1, 2, and 3; and • Cytarabine (100 mg/m^2) as a continuous intravenous infusion over 24 hours (Days 1 through 7).
All patients also received ODSH as an intravenous bolus immediately after the idarubicin dose on Day 1, at a dose of 4 mg/kg, followed by a continuous intravenous infusion at a dose of 0.25 mg/kg/hr for a total of 7 days (Days 1 through 7).
Twelve patients were enrolled. The median age was 56 (range 22-74). Based on cytogenetic, molecular, or antecedent hematologic disorder, 9 of 12 patients fell into the intermediate or poor risk categories. […] Complete remission at the end of the induction cycle was assessed using International Working Group (IWG) criteria (see, e.g., Cheson et al., J. Clin. Oncol. 21:4642 (2003)). […]

Assay [6] concerns bone marrow cells. Nature of the assay: serial bone marrow biopsies in the AML trial. The class given is in vivo, human. From the text: Bone marrow biopsies were obtained in the AML trial described in Example 1.
FIGS. 2A-2C are photomicrographs of biopsies from one of the patients.

Assay [7] concerns Xa. The conditions noted are these: Rao et al. 2010; cited from earlier work.

Where two headings read alike, the source gives them in different places.

T1 sequence (P48061 22-89 limits assumed): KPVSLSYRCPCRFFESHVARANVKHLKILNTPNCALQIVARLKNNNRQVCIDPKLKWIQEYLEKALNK

With 2-O, 3-O desulfated heparin [ODSH], the “IC50 for inhibition of binding of CXCL12 (SDF-1) to CXCR4” value in assay [1] was 0.010 µg/mL. This substance gave a USP anticoagulant activity in assay [2] of 7±0.3 U/mg. The same substance had an anti-Xa activity in assay [3] of 1.9±0.1 U/mg. Besides, the anti-IIa activity in assay [4] was 1.2±0.1 U/mg. For the same substance, the “myelosuppressive side effects of the idarubicin+cytarabine regimen” value in assay [5] (AML patients) is given as “significantly attenuated”. Moreover, the “Complete response with first induction cycle” value in assay [5] (current study, n = 12, morphologic complete remission by IWG criteria) stood at 92%. The “bone marrow biopsy appearance” value in assay [6] (Day 14 of the induction cycle, one patient) is “unexpected and significant depletion of normal bone marrow cells”; in assay [6] (Day 28, one patient) it was “no evidence of leukemia and restoration of normal bone marrow appearance and function”.

For the substance “unfractionated heparin [reference compound]”, the USP anticoagulant activity in assay [2] is given as 165-190 U/mg. Besides, the anti-Xa activity in assay [3] and in assay [7] was 165-190 U/mg in each case. Besides, in assay [4], the anti-IIa activity was 165-190 U/mg.
